Experimental data from patent publication US10266544B2, “Aryl substituted aminomethyl spectinomycin analogs as antibacterial agents” (ST. JUDE CHILDREN'S RESEARCH HOSPITAL, INC., priority 2013, dated 2019).
Where a name gives a salt, the structure may show the parent alone. Read-outs that look alike come from different tables or passages of the source.

Legend:
Assay type in all cases: cell-based
[1] = tested on: Streptococcus pyogenes (ATCC 700294); assay: MIC determination, microbroth dilution; details: ATCC700294; Streptococcus pyogenes (ATCC 700294); read-out: MIC S. py.
[2] = tested on: acinetobacter baumannii (ATCC 19606); assay: MIC determination, microbroth dilution; details: ATCC19606
[3] = tested on: Escherichia coli (ATCC 700926); assay: MIC determination, microbroth dilution; details: ATCC700926; Escherichia coli (ATCC 700926); read-out: MIC E.c.
[4] = tested on: Pseudomonas aeruginosa (PA01); assay: MIC determination, microbroth dilution
[5] = tested on: Haemophilus influenza (ATCC 49247); assay: microbe, parasite or virus in culture; details: ATCC49247; Haemophilus influenza; 4 μg per disc; range of at least two experiments; read-out: Zone of inhibition H.i.
[6] = tested on: Streptococcus pneumoniae clinical isolates representing several serotypes; assay: MIC determination, Streptococcus pneumoniae panel of clinical isolates (Table 7); details: for MIC: Streptococcus pneumoniae

Structure (SMILES): CN[C@@H]1[C@H](O)[C@H](NC)[C@H]2O[C@]3(O)[C@H](O[C@@H]2[C@H]1O)O[C@H](C)C[C@@]3(O)CNCc1ccc(F)cc1 [compound 2, 3′-(R)-3′-[(4-fluoro)benzylaminomethyl)]dihydrospectinomycin Trihydrochloride]
- MIC [1]: 1.6 to 3.1 µg/mL
- MIC [2]: > 200 µg/mL
- MIC [3]: 25 µg/mL
- MIC [4]: 100 to 200 µg/mL
- zone of inhibition at 4 µg/disc [5]: 17 to 19 mm
- susceptibility of strains with mono-resistance to penicillin, streptomycin, and erythromycin [6]: highly susceptible
- MIC ([6]; BAA1407, S. pneumoniae BAA-1407, Macrolide Resistant, read-out: MIC BAA-1407): 6.3 µg/mL
- MIC ([6]; S. pneumoniae A66.1x, Drug Susceptible, read-out: MIC A66.1x): 1.6 µg/mL
- MIC ([6]; S. pneumoniae BHN97x, Drug Susceptible, read-out: MIC BHN97x): 1.6 µg/mL
- MIC ([6]; S. pneumoniae D39X, Drug Susceptible, read-out: MIC D39X): 1.6 µg/mL
- MIC ([6]; S. pneumoniae Daw7, PenG Resistant, read-out: MIC Daw7): 3.1 µg/mL
- MIC ([6]; S. pneumoniae Daw8, PenG Resistant, read-out: MIC Daw8): 3.1 µg/mL
- MIC ([6]; S. pneumoniae Daw9, PenG Resistant, read-out: MIC Daw9): 3.1 µg/mL
- MIC ([6]; S. pneumoniae Daw62, PenG Resistant, read-out: MIC Daw62): 3.1 µg/mL
- MIC ([6]; S. pneumoniae Daw64, PenG Resistant, read-out: MIC Daw64): 3.1 µg/mL
- MIC ([6]; S. pneumoniae OVA6, Macrolide Resistant, read-out: MIC OVA6): 3.1 µg/mL
- MIC ([6]; S. pneumoniae T4X, Drug Susceptible, read-out: MIC T4X): 3.1 µg/mL
